The text below walks through data of US4172145A, “Benzo(b)furylacetic acid derivatives to reduce inflammation” (priority 1975, dated 1979).

As a reminder, the LD50 is the dose at which mortality reaches 50%. Broadly, the ED50 is the dose at which the effect has come halfway, by size or by number of responders.

Data set [1] relates to carrageenin-induced edema on the hind paw of rats. Put plainly: Anti-edema effect on carrageenin-induced edema on the hind paw of rats (Carrageenin Edema Method). The settings on record: rat, oral, 3 hours after carrageenin. In kind it is in vivo, rat (male Wistar strain). Here is the method:
The anti-edema effect was determined according to the method of Yamazaki et al [Yamazaki, H., et al; Folia Pharmacologica Japonica, 63, 302 (1967)].
In this test, a group consisting of five rats (male Wistar strain: weight 100-120 g) was used for the test and control groups. The compounds shown in Table 2 were administered orally to the rats of the test group. After one hour, 0.1 ml of a 1% carrageenin solution (phlogistic agent) was further administered to each rat by subcutaneous injection in one hind paw. To each rat of the control group, 0.1 ml of a 1% carrageenin solution was also administered in a similar manner to that for test rats. 1, 3 and 5 hours after administration of the phlogistic agent, the swelling ratio was calculated by means of the following equation: […]
Test group [formula] in which b: swelling ratio
B: volume of a hind paw without administration of phlogistic agent
B': volume of a hind paw administered with phlogistic agent
Control group [formula] in which a: swelling ratio
A: volume of a hind paw without administration of phlogistic agent
A': volume of a hind paw administered with phlogistic agent
The anti-edema effect was expressed as the suppression ratio of the edema in comparison with the control group to which the test compound had not been administered. The suppression ratio of the edema was determined 3 hours after administration of the phlogistic agent and was calculated by means of the following equation: [formula] in which a and b are as hereinbefore defined.
Background: The carrageenan paw model is a standard test of acute inflammation.

Data set [2] has as its system acetic acid-induced writhing reactions in mice. The data set can be described thus: Analgesic activity in mice (AcOH Writhing Method). Format: in vivo, mouse (male dd-strain). The conditions noted are these: mouse, oral. Here is the method:
In this test, three groups, each consisting of 10 mice (male dd-strain; weight: 19-21 g) were used. The compounds shown in Table 3 were administered orally to the test mice. One hour after the administration, the mice were treated with 0.1 ml/10 g of 0.7% acetic acid solution in physiological saline by intraperitoneal injection according to the method of Koster et al [Koster, R., et al; Fed. Proc., 18, 412 (1959)]. Ten minutes after the treatment, the number of writhing reactions occurring in the mice was counted.
(An intraperitoneal irritant provokes the stretching counted in writhing tests.)

The test system of data set [3] is pain threshold of inflamed and not inflamed paws of rats. Put plainly: Analgesic activity in rats (Randall-Selitto Method). The conditions noted are these: Rattus norvegicus, po, read-out: Analgesic Coefficient; for change in vivo at 150 mg/kg: P.O. 150 mg/kg. Format: in vivo, rat (male Wister strain). The method, then:
A group consisting of 6-7 rats (male Wister strain; weight: 100-120 g) was used for the test and control groups in this test. Each rat of both groups was treated with 0.1 ml of a 1% carrageenin solution as phlogistic agent by subcutaneous injection in one hind paw. 3 hours after the administration, pressure was applied to the treated paw of each rat by means of a pressing device (manufactured by Ugobasile S. A., Italy). The threshold of pain induced by press was measured with reference to the shriek and struggle according to the method of Randall and Selitto [Randall, L. O. and Selitto, J. J.; Arch, Int. Pharmocodyn., 111, 409 (1957)]. From each group 5 rats having a good response reaction, i.e. the pain threshold was not more than 70 g, were respectively selected. […] 1, 2 and 3 hours after administration, pressure was again applied to both the inflamed and not inflamed paws of the test rats and the pain threshold was measured. On the other hand, without the administration of the active compound, the pressure was applied to both the inflamed and not inflamed paws of the selected 5 rats of the control group and the pain threshold was measured. The inflamed paws of the test and control groups were compared with each other. Also the not inflamed paws of the both groups were compared with each other.
The analgesic coefficient was calculated by means of the following equation, and the larger analgesic coefficient the better analgesic activity. [formula] in which X: analgesic coefficient (%)
P1 : threshold (g) of the test rats administered with active compounds
P2 : threshold (g) of the control rats without administration of active compound

Data set [4] can be described thus: in vivo. The conditions noted are these: oral, observed one week, Litchfield and Wilcoxon. Here is the method:
In this test, five groups, each consisting of 5 mice (male dd strain; weight: 19-21 g) and 5 rats (male Wistar strain; weight: 100-120 g) were used. […] The LD50 was calculated according to the method of Litchfield and Wilcoxon [Journal of Pharmacol. and Exper. Therap.

Data set [5] in a line: in vivo. The conditions noted are these: rat, po. Here is the method:
A test group consisting of 10-15 rats (male Wistar strain; weight: 180-220 g) was used in this test. Each rat was fasted for 20 hours, but water was allowed ad libitum. The compounds shown in Table 5 were administered orally. After a 20-hour interval during which the rats were not fed but were allowed water, each rat was administered under ether anesthesia with 0.5 ml per 100 g body weight of a 5% solution of pontamine sky blue 6BX in saline (pH 7.2--adjusted with 0.5 N HCl) by intravenous injection. 15 minutes after administration each rat was killed. The stomach was removed and maintained in a 1% formalin solution. After about 2 hours, the stomach was opened along the greater curvature and the length of lesions (dark blue areas against pale blue background) in the glandular portion was measured under a dissecting microscope (10×) provided with a square grid. The sum of the lengths (mm) of lesions was used as ulcer index.

The mark [6] stands for this setting: read-out: Anti-edema Effect, Suppression Ratio.
[7] abbreviates: 1 h before acetic acid, read-out: Analgesic Effect (AcOH Writhing Method), Suppression Ratio.
Setting [8] is: mouse, read-out: Acute Toxicity (P.O.), LD50, Mouse.
The mark [9] stands for this setting: rat, read-out: Acute Toxicity (P.O.), LD50, Rat.

Molecules are shown by their SMILES. Like-named read-outs stand apart in the source and are kept apart here.

Regarding `Cc1c(CC(=O)O)oc2ccc(C(C)(C)C)cc12` [Test Compound 6, 5-tert-butyl-3-methyl-2-benzo(b)furylacetic acid], the inhibition in vivo at 150 mg/kg in data set [1] (setting [6]) was 39.9%; in data set [2] (setting [7]) it was 23.7%. Moreover, the change in vivo at 150 mg/kg in data set [3] (1 h, inflamed paw, 1 hr.) was 19.5%; in data set [3] (1 h, not inflamed paw, 1 hr.), 6%; in data set [3] (2 h, inflamed paw, 2 hr.), 17.8%; in data set [3] (2 h, not inflamed paw, 2 hr.), 0.8%; in data set [3] (3 h, inflamed paw, 3 hr.), 14.4%; in data set [3] (3 h, not inflamed paw, 3 hr.), 1.3%. For the same molecule, the 50% lethal dose (LD50) at 168 h is > 1000 mg/kg in “in vivo [4]” (setting [8]) and > 300 mg/kg in “in vivo [4]” (setting [9]).
On to `Cc1c(CC(=O)O)oc2ccccc12` [Test Compound 1, 3-methyl-2-benzo(b)furylacetic acid], for which the inhibition in vivo at 75 mg/kg in data set [1] (setting [6]) worked out at 25.3%; in data set [2] (75 mg/kg, 1 h before acetic acid, read-out: Analgesic Effect (AcOH Writhing Method), Suppression Ratio) it was 21.7%. Further, the inhibition in vivo at 150 mg/kg in data set [1] (setting [6]) was found to be 41.2%; in data set [2] (setting [7]), 42.9%. Also, the inhibition in vivo at 300 mg/kg in data set [1] (setting [6]) stood at 54.2%; in data set [2] (setting [7]), 70.9%. The ED50 in data set [1] is 240 mg/kg; in data set [2] (read-out: Analgesic Effect (AcOH Writhing Method), ED50), 170 mg/kg. The change in vivo at 150 mg/kg came to 13.8% in data set [3] (1 h, inflamed paw, 1 hr.); 0.4% in data set [3] (1 h, not inflamed paw, 1 hr.); 5.9% in data set [3] (2 h, inflamed paw, 2 hr.); 1.7% in data set [3] (2 h, not inflamed paw, 2 hr.); 4.2% in data set [3] (3 h, inflamed paw, 3 hr.); 0% in data set [3] (3 h, not inflamed paw, 3 hr.). The LD50 at 168 h is > 1100 mg/kg in the data set “in vivo [4]” (setting [8]) and > 300 mg/kg in “in vivo [4]” (setting [9]).
Regarding `Cc1c(CC(=O)O)oc2ccc(Cc3ccccc3)cc12` [Test Compound 8, 5-benzyl-3-methyl-2-benzo(b)furylacetic acid], the inhibition in vivo at 150 mg/kg was 31.1% in data set [1] (setting [6]) and 30.5% in data set [2] (setting [7]). In addition, the inhibition in vivo at 300 mg/kg in data set [2] (setting [7]) was found to be 55.6%. Besides, the change in vivo at 150 mg/kg in data set [3] (1 h, inflamed paw, 1 hr.) was determined as 23.1%; in data set [3] (1 h, not inflamed paw, 1 hr.), 1.7%; in data set [3] (2 h, inflamed paw, 2 hr.) it was 24.7%; in data set [3] (2 h, not inflamed paw, 2 hr.), 0.7%; in data set [3] (3 h, inflamed paw, 3 hr.) it was 29.5%; in data set [3] (3 h, not inflamed paw, 3 hr.), 6.1%. Besides, the 50% lethal dose (LD50) at 168 h in the data set “in vivo [4]” (setting [8]) is 500 to 1000 mg/kg; in the data set “in vivo [4]” (setting [9]) it was > 300 mg/kg.
Turning to `CC(C)Cc1ccc(C(C)C(=O)O)cc1` (centres unmarked) [Ibuprofen, reference compound], the inhibition in vivo at 150 mg/kg is 45.3% in data set [1] (setting [6]) and 57.2% in data set [2] (setting [7]). Also, the change in vivo at 150 mg/kg is 20.9% in data set [3] (1 h, inflamed paw, 1 hr.); 0.5% in data set [3] (1 h, not inflamed paw, 1 hr.); 28.8% in data set [3] (2 h, inflamed paw, 2 hr.); 5.5% in data set [3] (2 h, not inflamed paw, 2 hr.); 23.3% in data set [3] (3 h, inflamed paw, 3 hr.); 4.2% in data set [3] (3 h, not inflamed paw, 3 hr.). In the data set “in vivo [5]”, this molecule registered a TD50 at 20 h of 46 mg/kg.
In the case of `CCCCC1C(=O)N(c2ccccc2)N(c2ccccc2)C1=O` [Phenylbutazone, reference compound], the inhibition in vivo at 100 mg/kg was determined as 42.6% in data set [1] (100 mg/kg (footnote *; printed in 75 mg/kg column), read-out: Anti-edema Effect, Suppression Ratio) and 20.8% in data set [2] (100 mg/kg (footnote *; printed in 75 mg/kg column), read-out: Analgesic Effect (AcOH Writhing Method), Suppression Ratio). Moreover, the inhibition in vivo at 200 mg/kg in data set [1] (200 mg/kg (footnote **; printed in 150 mg/kg column), read-out: Anti-edema Effect, Suppression Ratio) was found to be 53.5%; in data set [2] (200 mg/kg (footnote **; printed in 150 mg/kg column), read-out: Analgesic Effect (AcOH Writhing Method), Suppression Ratio), 28.2%. Further, the change in vivo at 100 mg/kg stood at 3.8% in data set [3] (1 h, P.O. 100 mg/kg (** on upper line only), not inflamed paw, 1 hr.); 20.7% in data set [3] (1 h, P.O. 100 mg/kg, inflamed paw, 1 hr.); 5.4% in data set [3] (2 h, P.O. 100 mg/kg (** on upper line only), not inflamed paw, 2 hr.); 23.2% in data set [3] (2 h, P.O. 100 mg/kg, inflamed paw, 2 hr.); 2% in data set [3] (3 h, P.O. 100 mg/kg (** on upper line only), not inflamed paw, 3 hr.); 27.7% in data set [3] (3 h, P.O. 100 mg/kg, inflamed paw, 3 hr.). Besides, the TD50 at 20 h in “in vivo [5]” amounted to 76 mg/kg.
On to `Cc1c(CC(=O)O)oc2ccc(C3CCCCC3)cc12` [Test Compound 9, 5-cyclohexyl-3-methyl-2-benzo(b)furylacetic acid], for which the inhibition in vivo at 150 mg/kg in data set [1] (setting [6]) came out at 28%. The change in vivo at 150 mg/kg in data set [3] (1 h, inflamed paw, 1 hr.) was 0%; in data set [3] (1 h, not inflamed paw, 1 hr.), 0%; in data set [3] (2 h, inflamed paw, 2 hr.), 2%; in data set [3] (2 h, not inflamed paw, 2 hr.) it was 0%; in data set [3] (3 h, inflamed paw, 3 hr.), 32%; in data set [3] (3 h, not inflamed paw, 3 hr.) it was 17.2%. In addition, the LD50 at 168 h in the data set “in vivo [4]” (setting [8]) was > 1000 mg/kg; in the data set “in vivo [4]” (setting [9]) it was > 150 mg/kg.
`Cc1c(CC(=O)O)oc2ccc(-c3ccccc3)cc12` [Test Compound 7, 5-phenyl-3-methyl-2-benzo(b)furylacetic acid]: the inhibition in vivo at 75 mg/kg in data set [1] (setting [6]) came out at 52.7%. For the same molecule, the inhibition in vivo at 150 mg/kg in data set [1] (setting [6]) was found to be 63.9%; in data set [2] (setting [7]), 20.9%. Further, the inhibition in vivo at 300 mg/kg in data set [1] (setting [6]) was determined as 73.3%; in data set [2] (setting [7]), 77.6%. This molecule also came in with an ED50 in data set [1] of 70 mg/kg. Also, the change in vivo at 150 mg/kg was 37.2% in data set [3] (1 h, inflamed paw, 1 hr.); 8% in data set [3] (1 h, not inflamed paw, 1 hr.); 23.3% in data set [3] (2 h, inflamed paw, 2 hr.); 2.4% in data set [3] (2 h, not inflamed paw, 2 hr.); 11.3% in data set [3] (3 h, inflamed paw, 3 hr.); 4.7% in data set [3] (3 h, not inflamed paw, 3 hr.). Also, the figures for the LD50 at 168 h in “in vivo [4]” (setting [8]) and in “in vivo [4]” (setting [9]) were 500 to 1000 mg/kg and > 300 mg/kg, respectively.
